{"source": "patent US20230310627A1", "about": "“COMBINATION THERAPY WITH ANTI-TROP-2 ANTIBODIES AND PARP INHIBITORS” (priority 2021, published 2023)", "key": {"TNBC xenografts": {"test_system": "TNBC xenografts", "details": "nude mice bearing TNBC xenografts; independent of BRCA1/2 mutation status; cited from earlier work"}, "colorectal cancer": {"test_system": "colorectal cancer", "details": "continuous olaparib administration; cited from earlier work"}, "patients with mTNBC": {"test_system": "patients with mTNBC", "experiment": "Phase 1b/2 open-label study of SG in combination with talazoparib (NCT04039230)", "type": "in vivo, human", "details": "every 21 days", "protocol": "Study Design: In a Phase 1b/2, open-label study, SG was administered in combination with talazoparib for patients with mTNBC (clinicaltrials.gov#NCT04039230; FIG. 2A). Treatment cycles were continued until unacceptable toxicity or progression of disease at the discretion of the treating physician. Within 4 weeks prior to the first dose of study treatment administration, baseline evaluations were completed which included patient medical and surgical history, a physical examination with vital signs and performance evaluation, laboratories, and tumor assessment imaging. Once on active treatment, patients were administered SG and talazoparib over a 21 day cycle or 28 day cycle. […] All patients were monitored closely over the course of their treatment and NCI CTC v5.0 was used to grade all adverse events and provide dose reduction, delay, or cessation guidelines in the event of treatment-related toxicity. […]\nStudy Population: Patients enrolled were 18 years of age or older with histological or cytological confirmation of TNBC as determined by the local institution, with metastatic disease documented by CT or MRI imaging, and currently have measurable disease by CT/MRI. […]\nEndpoints: Safety and tolerability of SG in combination with talazoparib was evaluated from adverse events, standard safety laboratories, physical examination, vital signs, and EKG. […]"}, "[1]": {"details": "veliparib in combination with topotecan; cited from earlier work"}, "[2]": {"test_system": "normal diploid cells (WI-38)", "experiment": "In vitro cytotoxicity of sequential SG then talazoparib in normal diploid cells", "type": "cell-based", "protocol": "Cell Lines and Cell Culture: All cell lines were obtained from the MGH Center for Molecular Therapeutics cell bank in and underwent high-density SNP typing to confirm their identity. All experiments shown were performed within less than 6 months' passage of all lines since acquisition. Cells were maintained at 37° C. in 5% CO2. MDA-MB-468 cells were grown in RPMI (Lonza) supplemented with 10% FBS (SAFC), 1% penicillin (Gibco), streptomycin (Gibco). WI-38 cells were grown in DMEM (Lonza) supplemented with 10% FBS (SAFC), 1% penicillin (Gibco), streptomycin (Gibco).\nTROP2-expressing TNBC cells or normal diploid cells were exposed to SG, followed by washout, then PARPi treatment with Talazoparib."}, "[3]": {"molecular_target": "T1, TOP1 cleavage complexes (TOP1CC) (Homo sapiens, UniProt P11387)", "T1 construct": "endogenous in cells; host or cells: MDA-MB-468 breast cancer cells (immunofluorescence); TNBC cell models (RADAR)", "T1 sequence (P11387 1-765)": "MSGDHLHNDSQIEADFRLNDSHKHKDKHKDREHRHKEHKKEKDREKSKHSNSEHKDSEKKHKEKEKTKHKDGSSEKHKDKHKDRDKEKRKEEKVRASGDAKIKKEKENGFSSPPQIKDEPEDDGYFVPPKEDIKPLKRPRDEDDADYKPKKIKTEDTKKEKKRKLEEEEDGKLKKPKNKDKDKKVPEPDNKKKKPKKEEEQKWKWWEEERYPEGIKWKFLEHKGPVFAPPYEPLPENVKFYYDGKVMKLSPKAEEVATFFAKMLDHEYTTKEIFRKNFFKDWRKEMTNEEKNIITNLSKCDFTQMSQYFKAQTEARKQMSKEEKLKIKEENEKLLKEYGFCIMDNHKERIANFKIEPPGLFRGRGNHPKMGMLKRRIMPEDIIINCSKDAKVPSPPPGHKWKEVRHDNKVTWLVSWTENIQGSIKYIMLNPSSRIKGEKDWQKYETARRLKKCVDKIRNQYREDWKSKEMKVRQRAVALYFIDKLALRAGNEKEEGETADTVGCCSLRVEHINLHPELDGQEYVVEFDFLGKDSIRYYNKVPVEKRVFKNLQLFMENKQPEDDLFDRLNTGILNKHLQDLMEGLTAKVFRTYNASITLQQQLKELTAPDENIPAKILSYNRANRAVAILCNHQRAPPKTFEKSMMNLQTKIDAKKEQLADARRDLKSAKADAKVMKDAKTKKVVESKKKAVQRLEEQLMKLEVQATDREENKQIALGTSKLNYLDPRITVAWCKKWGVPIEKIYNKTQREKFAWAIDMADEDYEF", "experiment": "TOP1CC detection by RADAR assay and immunofluorescence", "type": "cell-based", "protocol": "Modification of the RADAR assay for detection of TOP1CC: Detection of TOP1CC was performed according to the published protocol (PMID: 34408146) with minor modification. After SG and/or TZP treatment, 1×10^6 cells per condition were washed with 1×PBS and lysed with 600 μl DNAzol (Invitrogen) at 4° C. for 10 min, followed by precipitation with 300 μl 100% ethanol. The nucleic acids were collected by centrifugation at 15,000 rpm for 10 min at 4° C., washed with 75% ethanol twice and resuspended in 200 μl TE buffer. The samples were then heated at 65° C. for 15 min, followed by shearing with sonication (40% output for 10 s pulse and 10 s rest for four times). […] The concentration of the sample was quantified by NanoDrop. […]\nImmunofluorescence: To visualize TOP1CC by immunofluorescence, cells were plated into 96-well plates having #1.5 glass coverslips (Cellvis, P98-1.5H-N). […] Images were compiled and quantified using ImageJ software.\nWithout wishing to be bound by any theory, sequential PARPi is believed to enhance SG toxicity through stabilization of TOP1CC that persist following SG washout due to the high delivered SN38 concentration in tumor cells (FIG. 3A). TOP1CC was quantified by two methods: the RADAR (Rapid Approach to DNA Adduct Recovery) assay, which detects TOP1 covalently bound to DNA, and by immunofluorescence. […]"}, "[4]": {"test_system": "phosphorylated histone H2AX (γH2AX)", "experiment": "Flow cytometry of phosphorylated histone H2AX (γH2AX)", "type": "cell-based", "protocol": "Flow Cytometry: For flow cytometry detection of γH2AX (also known as g-H2AX), 1×10^6 cells were collected and fixed with 4% paraformaldehyde at 4° C. for 20 min and then permeabilized with 0.25% Triton X-100 in PBS. After blocking with 2% BSA in PBS at 4° C. for 20 min, the cells were stained with Alexa Fluor® 488 conjugated anti-phospho Histone H2A.X antibody (EMD Millipore, clone JBW301, #05-636-AF488) at 4° C. for 1 h. The cells were then washed twice with 2% BSA in PBS and counterstained with DAPI (Abcam, #ab228549). For flow cytometry detection of apoptotic cells, 1×10^6 cells were collected, and the staining was performed by using eBioscience™ Annexin V Apoptosis Detection Kit APC (Invitrogen, #88-8007) according to manufacturer's instruction. Samples were examined using a FACSAria flow cytometer. […]\nWithout wishing to be bound by any theory, sequential PARPi is believed to enhance SG toxicity through stabilization of TOP1CC that persist following SG washout due to the high delivered SN38 concentration in tumor cells (FIG. 3A). TOP1CC was quantified by two methods: the RADAR (Rapid Approach to DNA Adduct Recovery) assay, which detects TOP1 covalently bound to DNA, and by immunofluorescence. […] Persistent TOP1CC are expected to lead to DNA damage including double-strand DNA breaks, which were quantified using flow cytometry to assess phosphorylated histone H2AX (γH2AX) staining. […]"}, "[5]": {"test_system": "patients with previously treated mTNBC", "details": "phase III ASCENT; cited from earlier work"}}, "data": [{"molecule": "O=C(c1cc(Cc2n[nH]c(=O)c3ccccc23)ccc1F)N1CCN(C(=O)C2CC2)CC1", "note": "[olaparib]", "values": [{"measurement": "tumor growth inhibition in combination with sacituzumab govitecan", "setting": "TNBC xenografts", "value": "Synthetic lethality and synergistic inhibition of tumor growth"}, {"measurement": "toxicity of the combination with irinotecan", "setting": "colorectal cancer", "value": "higher-than-expected toxicities and considered intolerable"}]}, {"molecule": "CNCc1ccc(-c2[nH]c3cc(F)cc4c3c2CCNC4=O)cc1", "note": "[rucaparib]", "values": [{"measurement": "tumor growth inhibition in combination with sacituzumab govitecan", "setting": "TNBC xenografts", "value": "Synthetic lethality and synergistic inhibition of tumor growth"}]}, {"molecule": "Cn1ncnc1[C@H]1c2n[nH]c(=O)c3cc(F)cc(c23)N[C@@H]1c1ccc(F)cc1", "note": "[talazoparib]", "values": [{"measurement": "recommended phase-2 dose (R2PD)", "setting": "patients with mTNBC; talazoparib on days 15-21 after SG", "value": 1, "unit": "mg"}, {"measurement": "tumor growth inhibition in combination with sacituzumab govitecan", "setting": "TNBC xenografts", "value": "Synthetic lethality and synergistic inhibition of tumor growth"}]}, {"molecule": "CC[C@@]1(O)C(=O)OCc2c1cc1n(c2=O)Cc2cc3c(CN(C)C)c(O)ccc3nc2-1", "note": "[topotecan]", "values": [{"measurement": "MTD in the combination relative to single-agent MTD", "setting": "[1]", "value": 40, "unit": "%"}]}, {"molecule": "C[C@]1(c2nc3c(C(N)=O)cccc3[nH]2)CCCN1", "note": "[veliparib]", "values": [{"measurement": "MTD in the combination relative to single-agent MTD", "setting": "[1]", "value": 3, "unit": "%"}]}, {"molecule": "sacituzumab govitecan [SG]", "values": [{"measurement": "recommended phase-2 dose (R2PD)", "setting": "patients with mTNBC; sequential SG on days 1,8 with talazoparib", "value": 10, "unit": "mg/kg"}, {"measurement": "SG sensitivity (cytotoxicity)", "setting": "[2]", "value": "little SG sensitivity"}, {"measurement": "TOP1CC following SG washout", "setting": "[3]", "value": "resolved entirely within two hours"}, {"measurement": "DNA damage (γH2AX staining) after SG washout", "setting": "[4]", "value": "resolution of DNA damage within 24 hours"}, {"measurement": "median overall survival", "setting": "[5]", "value": 12.1, "unit": "months"}, {"measurement": "median progression-free survival", "setting": "[5]", "value": 5.6, "unit": "months"}]}]}
